# Reference: BindingDB's records for patent US10022376 (Pfizer, 2018)
# Key:
# Test in all cases: JAK Caliper Enzyme Assay at 1 mM ATP
# Settings in all cases: pH 7.4; 25 °C
# [1] = molecular target: Tyrosine-protein kinase JAK1 (Homo sapiens, UniProt P23458)
# Description: (§1) Test article was solubilized in dimethyl sulfoxide (DMSO) to a stock concentration of 30 mM. An 11-point half log dilution series was created in DMSO with a top concentration of 600 μM. […] The compound plates were diluted 1 to 60 resulting in a top final assay compound concentration of 10 μM and a 2% DMSO concentration.Test article and assay controls were added to a 384-well plate. Reaction mixtures contained 20 mM HEPES, pH 7.4, 10 mM magnesium chloride, 0.01% bovine serum albumin (BSA), 0.0005% Tween 20, 1 mM ATP and 1 μM peptide substrate. […] Enzyme concentrations and incubation times were optimized for each new enzyme preps and were modified slightly over time to ensure 20%-30% phosphorylation. The assays were stopped with a final concentration of 10 mM EDTA, 0.1% Coating Reagent and 100 mM HEPES, pH=7.4. The assay plates were placed on a Caliper Life Science Lab Chip 3000 (LC3000) instrument, and each well was sampled using appropriate separation conditions to measure the unphosphorylated and phosphorylated peptide.
# [2] = molecular target: Non-receptor tyrosine-protein kinase TYK2 (Homo sapiens, UniProt P29597)
# Sequence of Non-receptor tyrosine-protein kinase TYK2 (P29597 whole entry): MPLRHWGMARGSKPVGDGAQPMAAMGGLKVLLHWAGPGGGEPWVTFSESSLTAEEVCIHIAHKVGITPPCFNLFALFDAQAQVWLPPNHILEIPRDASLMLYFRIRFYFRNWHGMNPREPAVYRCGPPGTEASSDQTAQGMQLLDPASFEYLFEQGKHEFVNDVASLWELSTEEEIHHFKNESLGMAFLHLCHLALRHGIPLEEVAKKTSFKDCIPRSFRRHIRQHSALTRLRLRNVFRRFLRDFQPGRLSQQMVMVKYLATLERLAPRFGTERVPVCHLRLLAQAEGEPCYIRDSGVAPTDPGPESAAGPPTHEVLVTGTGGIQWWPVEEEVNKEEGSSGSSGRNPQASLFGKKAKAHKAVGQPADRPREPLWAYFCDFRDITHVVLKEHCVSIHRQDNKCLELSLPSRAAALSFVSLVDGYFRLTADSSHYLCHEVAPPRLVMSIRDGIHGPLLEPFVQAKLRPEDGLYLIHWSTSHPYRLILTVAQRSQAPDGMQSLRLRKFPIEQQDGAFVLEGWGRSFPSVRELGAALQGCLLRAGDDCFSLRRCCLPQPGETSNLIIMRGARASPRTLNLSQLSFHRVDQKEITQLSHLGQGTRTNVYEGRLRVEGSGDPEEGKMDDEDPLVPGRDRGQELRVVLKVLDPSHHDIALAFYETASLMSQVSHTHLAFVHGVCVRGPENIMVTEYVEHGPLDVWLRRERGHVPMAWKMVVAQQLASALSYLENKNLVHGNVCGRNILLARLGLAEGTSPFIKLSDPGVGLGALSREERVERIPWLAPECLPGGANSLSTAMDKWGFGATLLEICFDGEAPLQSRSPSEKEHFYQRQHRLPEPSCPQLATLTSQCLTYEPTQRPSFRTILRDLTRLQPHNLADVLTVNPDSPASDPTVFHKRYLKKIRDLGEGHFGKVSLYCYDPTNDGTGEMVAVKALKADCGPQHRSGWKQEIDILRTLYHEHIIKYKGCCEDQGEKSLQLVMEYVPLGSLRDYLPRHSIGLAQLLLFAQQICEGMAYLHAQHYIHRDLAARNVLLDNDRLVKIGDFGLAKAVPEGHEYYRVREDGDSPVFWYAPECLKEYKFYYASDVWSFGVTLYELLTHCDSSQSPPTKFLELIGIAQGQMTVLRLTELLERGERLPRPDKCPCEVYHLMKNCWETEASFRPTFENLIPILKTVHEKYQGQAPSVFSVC
# Description: as §1
# [3] = molecular target: Tyrosine-protein kinase JAK2 (Homo sapiens, UniProt O60674)
# Sequence of Tyrosine-protein kinase JAK2 (O60674 whole entry): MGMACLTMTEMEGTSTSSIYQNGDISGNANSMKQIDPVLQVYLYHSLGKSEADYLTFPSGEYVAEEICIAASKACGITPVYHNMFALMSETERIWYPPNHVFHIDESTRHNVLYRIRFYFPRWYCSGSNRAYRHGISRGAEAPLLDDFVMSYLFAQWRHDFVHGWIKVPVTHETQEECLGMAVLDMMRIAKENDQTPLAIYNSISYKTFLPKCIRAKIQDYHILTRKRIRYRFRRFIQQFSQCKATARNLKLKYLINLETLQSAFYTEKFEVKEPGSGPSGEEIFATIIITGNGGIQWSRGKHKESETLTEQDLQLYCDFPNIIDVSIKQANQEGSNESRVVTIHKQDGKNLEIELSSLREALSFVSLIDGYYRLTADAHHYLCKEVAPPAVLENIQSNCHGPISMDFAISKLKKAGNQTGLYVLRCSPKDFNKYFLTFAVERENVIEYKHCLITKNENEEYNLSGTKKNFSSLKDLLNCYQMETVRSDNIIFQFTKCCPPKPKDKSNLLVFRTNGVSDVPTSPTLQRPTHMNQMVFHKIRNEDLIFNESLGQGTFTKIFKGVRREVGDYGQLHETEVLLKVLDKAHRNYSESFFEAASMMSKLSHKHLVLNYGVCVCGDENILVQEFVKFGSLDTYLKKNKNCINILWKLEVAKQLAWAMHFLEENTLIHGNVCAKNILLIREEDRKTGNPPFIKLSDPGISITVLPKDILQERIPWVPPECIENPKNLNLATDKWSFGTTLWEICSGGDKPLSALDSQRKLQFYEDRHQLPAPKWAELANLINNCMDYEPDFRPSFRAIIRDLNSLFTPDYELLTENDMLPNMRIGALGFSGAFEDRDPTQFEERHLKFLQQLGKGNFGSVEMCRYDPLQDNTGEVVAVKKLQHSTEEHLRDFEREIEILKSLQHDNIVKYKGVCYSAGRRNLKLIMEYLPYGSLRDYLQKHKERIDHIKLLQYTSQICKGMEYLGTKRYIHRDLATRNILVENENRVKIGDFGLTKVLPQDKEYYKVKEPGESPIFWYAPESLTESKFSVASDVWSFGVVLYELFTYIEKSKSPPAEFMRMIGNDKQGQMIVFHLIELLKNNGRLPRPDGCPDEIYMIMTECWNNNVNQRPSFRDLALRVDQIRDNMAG
# Description: as §1
# [4] = molecular target: T1, Tyrosine-protein kinase JAK3 (Homo sapiens, UniProt P52333)
# T1 sequence (P52333 whole entry): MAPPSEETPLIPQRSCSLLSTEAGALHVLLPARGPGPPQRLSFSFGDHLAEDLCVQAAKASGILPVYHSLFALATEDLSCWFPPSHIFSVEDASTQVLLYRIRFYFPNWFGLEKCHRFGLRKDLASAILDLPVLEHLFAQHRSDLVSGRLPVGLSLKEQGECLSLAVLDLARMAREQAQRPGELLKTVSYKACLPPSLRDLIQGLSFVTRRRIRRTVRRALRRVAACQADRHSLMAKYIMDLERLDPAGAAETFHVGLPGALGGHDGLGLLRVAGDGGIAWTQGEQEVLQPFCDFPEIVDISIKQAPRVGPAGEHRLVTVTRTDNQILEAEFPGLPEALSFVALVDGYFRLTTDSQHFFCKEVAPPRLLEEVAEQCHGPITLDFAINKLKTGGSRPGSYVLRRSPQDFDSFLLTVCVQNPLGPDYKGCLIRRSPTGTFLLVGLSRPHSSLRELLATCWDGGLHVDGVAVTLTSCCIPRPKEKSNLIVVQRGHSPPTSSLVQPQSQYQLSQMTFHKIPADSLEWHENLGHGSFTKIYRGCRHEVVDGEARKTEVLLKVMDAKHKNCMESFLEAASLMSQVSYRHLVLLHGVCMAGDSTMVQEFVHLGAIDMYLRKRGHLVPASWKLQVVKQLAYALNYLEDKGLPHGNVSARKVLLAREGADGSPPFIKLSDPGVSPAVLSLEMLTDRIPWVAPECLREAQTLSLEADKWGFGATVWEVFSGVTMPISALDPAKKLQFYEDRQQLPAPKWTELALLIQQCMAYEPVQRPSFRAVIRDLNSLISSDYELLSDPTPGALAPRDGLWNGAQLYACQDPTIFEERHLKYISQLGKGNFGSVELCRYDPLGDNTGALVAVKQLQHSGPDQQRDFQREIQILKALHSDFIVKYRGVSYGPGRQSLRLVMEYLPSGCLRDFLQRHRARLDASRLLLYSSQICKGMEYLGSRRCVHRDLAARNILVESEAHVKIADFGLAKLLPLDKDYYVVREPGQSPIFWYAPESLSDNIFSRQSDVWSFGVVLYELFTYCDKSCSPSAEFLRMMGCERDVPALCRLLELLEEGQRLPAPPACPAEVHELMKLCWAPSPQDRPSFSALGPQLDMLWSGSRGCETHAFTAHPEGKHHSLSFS
# Description: as §1
# Sequence of Tyrosine-protein kinase JAK1 (P23458 whole entry): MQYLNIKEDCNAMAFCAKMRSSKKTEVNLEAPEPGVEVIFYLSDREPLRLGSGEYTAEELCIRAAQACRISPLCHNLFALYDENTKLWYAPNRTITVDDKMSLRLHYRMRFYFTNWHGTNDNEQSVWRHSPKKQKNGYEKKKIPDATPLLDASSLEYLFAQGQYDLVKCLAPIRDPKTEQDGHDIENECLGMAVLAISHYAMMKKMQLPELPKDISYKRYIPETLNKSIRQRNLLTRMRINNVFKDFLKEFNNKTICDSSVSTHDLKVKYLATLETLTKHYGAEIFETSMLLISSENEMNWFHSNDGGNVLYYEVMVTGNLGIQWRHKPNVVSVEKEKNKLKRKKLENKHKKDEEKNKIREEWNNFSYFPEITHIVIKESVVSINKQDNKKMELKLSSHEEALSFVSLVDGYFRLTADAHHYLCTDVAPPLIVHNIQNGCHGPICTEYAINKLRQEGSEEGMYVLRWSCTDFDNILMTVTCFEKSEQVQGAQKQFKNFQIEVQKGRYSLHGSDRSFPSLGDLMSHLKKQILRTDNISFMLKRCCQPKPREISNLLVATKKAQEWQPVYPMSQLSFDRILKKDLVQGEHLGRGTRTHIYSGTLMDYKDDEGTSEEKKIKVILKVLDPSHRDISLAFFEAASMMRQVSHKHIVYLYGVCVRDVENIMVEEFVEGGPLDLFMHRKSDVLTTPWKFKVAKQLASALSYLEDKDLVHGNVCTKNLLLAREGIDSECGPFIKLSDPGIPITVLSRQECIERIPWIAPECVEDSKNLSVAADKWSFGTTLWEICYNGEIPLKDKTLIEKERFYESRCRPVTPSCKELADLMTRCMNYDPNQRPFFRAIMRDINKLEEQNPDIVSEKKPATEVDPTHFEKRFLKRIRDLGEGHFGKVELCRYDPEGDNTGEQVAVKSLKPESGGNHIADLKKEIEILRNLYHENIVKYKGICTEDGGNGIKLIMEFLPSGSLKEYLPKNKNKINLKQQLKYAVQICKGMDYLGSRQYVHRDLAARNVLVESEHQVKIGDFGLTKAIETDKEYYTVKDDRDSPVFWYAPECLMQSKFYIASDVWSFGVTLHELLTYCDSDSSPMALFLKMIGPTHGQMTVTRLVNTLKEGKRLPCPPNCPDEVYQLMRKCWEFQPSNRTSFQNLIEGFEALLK
SMILES,IC50 [1] [nM],IC50 [2] [nM],IC50 [3] [nM],IC50 [4] [nM]
"CCN(c1ccc(O)cc1CNc1nc(-c2cc(F)c(O)cc2CC(F)(F)F)nc2[nH]nc(C(N)=O)c12)S(=O)(=O)c1ccccc1 [US10022376, Example 97]",55.1,2190,–,–
"CNC(=O)c1n[nH]c2nc(-c3cc(F)c(O)cc3CC(F)(F)F)nc(NCc3nccnc3N(C)S(C)(=O)=O)c12 [US10022376, Example 106]",41.2,6110,283,–
"CN(C)CCNC(=O)N1CCc2[nH]c(-c3n[nH]c4nc(-c5cc(F)c(O)cc5CC(F)(F)F)nc(NCc5cc(O)ccc5N(C)S(C)(=O)=O)c34)nc2C1 [US10022376, Example 110]",5.4,35,26.9,–
"CNC(=O)c1n[nH]c2nc(-c3cc(F)c(O)cc3CC(F)(F)F)nc(NCc3ccccc3N(CCO)S(C)(=O)=O)c12 [US10022376, Example 100]",8.7,1150,32.3,–
"CCN(c1ccc(O)cc1CNc1nc(-c2cc(F)c(O)cc2CC(F)(F)F)nc2[nH]nc(C(=O)NC)c12)S(=O)(=O)c1ccccc1 [US10022376, Example 75]",61.1,1940,321,755
"CN(c1ccc(O)cc1CNc1nc(-c2cc(F)c(O)cc2CC(F)(F)F)nc2[nH]nc(C(=O)Nc3ccc(NCCO)nc3)c12)S(C)(=O)=O [US10022376, Example 169]",10.5,306,–,59.8
"CN(c1ccc(O)cc1CNc1nc(-c2cc(F)c(O)cc2CC(F)(F)F)cc2[nH]nc(C(=O)Nc3ccc(NCCO)nc3)c12)S(C)(=O)=O [US10022376, Example 164]",4.5,24.2,22.2,91
"CC(=O)N1CCc2[nH]c(-c3n[nH]c4nc(-c5cc(F)c(O)cc5CC(F)(F)F)nc(NCc5cc(O)ccc5N(C)S(C)(=O)=O)c34)nc2C1 [US10022376, Example 105]",–,14,14.4,51.2
"CN(c1ccccc1CNc1nc(-c2cc(F)c(O)cc2CC(F)(F)F)cc2[nH]nc(C(N)=O)c12)S(C)(=O)=O [US10022376, Example 98]",–,–,–,39.6
"CN(c1ccc(O)cc1CNc1nc(-c2cc(F)c(O)cc2CC(F)(F)F)nc2[nH]nc(C(N)=O)c12)S(=O)(=O)c1ccccc1 [US10022376, Example 96]",–,1730,–,248
"CN(c1cc(O)ccc1CNc1nc(-c2cc(F)c(O)cc2CC(F)(F)F)cc2[nH]nc(C(N)=O)c12)S(C)(=O)=O [US10022376, Example 99]",6.8,426,–,–
